Where two headings read alike, the source gives them in different places.
Tests used:
[1] = Cell viability (PrestoBlue) of miPSC-derived cardiomyocytes; type: cell-based, murine; settings: mouse, αPIG-AT25 miPSC-derived cardiomyocytes (puromycin-selected), 10 μM, 72 h of exposure
Protocol: The differentiation of transgenic mPSCs was initiated in mass cultures as briefly described below. One million cells were transferred per non-adhering 10 cm dish with 14 ml differentiation medium composed of Iscove's Modified Dulbecco's Medium (IMDM) with GlutaMAX (Life Technologies) supplemented with 20% FBS, 1×NEAA and 100 μM β-ME. Embryoid bodies (EBs) from day 2 of differentiation were transferred in a 250 ml spinner flask (CELLSPIN 250, Integra Biosciences, Fernwald, Germany) with a density of 3×10^4 EBs per 200 ml of differentiation medium. On the first 2 days of differentiation medium was supplemented with 50 μg/ml L-ascorbic acid phosphate (AA, Wako pure chemicals industry, Japan) in order to promote the development of cardiac cells. For the selection of GFP-expressing CMs, 50 ml of the medium was exchanged with fresh differentiation medium and 8 μg/ml puromycin (Life Technologies) were supplemented on day 9 of differentiation. Two days later, the cardiac clusters were transferred on non-adhering 10 cm dishes with fresh differentiation medium containing 8 μg/ml puromycin. In the further course of differentiation medium was exchanged every 2-3 days. If not otherwise specified, the purification of GFP-positive CMs with puromycin was continued until day 16 of differentiation. For single cell analyses and transfer of PSC-derived CMs on cell culture plates, cardiac clusters were dissociated with 0.25% trypsin-EDTA (Life Technologies) supplemented with 50 U/ml DNase I (AppliChem, Darmstadt, Germany) for 20-30 min at 37° C. The mPSC-derived CMs were filtered through a polyamide membrane with […] pore size (Sefar, Heiden, Switzerland). Cell numbers were determined with a Neubauer hemocytometer and cells were stored on ice until further use.
(§1) Serial dilutions of DMSO stock solutions of PluriSIn #1 (Sigma-Aldrich, catalog number SML0682) or one of small molecules SM1-SM10, were prepared from 20 mM stock solutions with cell culture medium. Murine PSCs were dissociated with 0.05% trypsin-EDTA, seeded on 0.1% gelatin-coated 96-well plates with a density of 5000 cells/well and cultured in maintenance medium supplemented with 1000 U/ml of mLIF. After 1 day, cells were incubated with 40 μM PluriSIn #1 and derivatives for 72 h or with 0.01-25 μM SMs for 48 h, respectively. For treatment of corresponding PSC-derived CMs with SMs, puromycin-selected miPSC-CMs from day 14 of differentiation were dissociated with 0.25% trypsin-EDTA as described above and plated on 96-well plates (5×10^4 cells/well) which were pre-coated with 5 μg/ml fibronectin (PromoCell, Heidelberg, Germany). After culturing miPSC-CMs with 8 μg/ml puromycin for 2 more days, they were incubated in differentiation medium supplemented with 0.1-100 μM of SMs for 48-72 h. Following small molecule treatment, cell viability was determined with PrestoBlue cell viability reagent (Life Technologies). To this end, cells were washed with PBS (with calcium and magnesium, Life Technologies) and incubated with PrestoBlue reagent diluted in cell culture medium for 40 min at 37° C.
(§2) Fluorescence intensities correlating with the number of viable cells in the wells were measured in black flat-bottom 96-well plates (Greiner Bio-One, Kremsmünster, Austria) with a GeniosPro microplate reader (Tecan, Männedorf, Schweiz).
The selectivity of compounds was investigated by comparing their cytotoxicity against undifferentiated iPSCs and iPSC-derived CMs. Murine iPSCs αPIG-AT25 were incubated for 48 h with compounds SM1, SM2, SM4, SM5, SM6 and SM8 in concentrations of 0.01 to 10 μM. Cell culture and cardiac differentiation were performed as described above. Experiments were run at least in quadruplicate. The cell viability was determined using PrestoBlue cell viability reagent.
The viability of salicylic diamine-treated CMs was confirmed by 72 h of exposure to concentrations of 0.01 μM, 0.1 μM, 1 μM, 10 μM and 25 μM of compounds SM1, SM2, SM4, SM5, SM6 and SM8.

[2] = test system: murine and human PSCs; test: Dose response assays, statements over murine and human PSCs; type: cell-based; settings: for IC50: iPSC, 48 h, read-out: IC50 values, range over murine iPSC line, two murine ESC lines and human iPSC line
Protocol: as §1, §2
IC50 values were determined by regression analysis of dose-response curves upon logarithmic transformation. Microscopic images of PSCs were taken with a Zeiss Axiovert 100 inverted microscope and GFP images of CMs were captured with a Zeiss Axiovert 200M fluorescence microscope (both Carl Zeiss, Oberkochen, Germany) and analyzed with Zeiss Axiovision 4.5 software (Carl Zeiss).
In order to quantify compound cytotoxicity, dose response assays were performed by treating PSCs with compound concentrations between nontoxic 0.01 μM and PSC-eliminating 10 μM for 48 h. Murine iPSCs αPIG-AT25, embryonic stem cell lines αPIG44-D3 and R1, and human induced pluripotent stem cell (hiPSC) line NP0014-C6 were used. Cell culture and dose response assays were performed as described above.

[3] = test system: miPSC-CM monolayers; test: Cardiomyocyte contraction rate by video imaging; type: cell-based, murine; settings: 10 μM, 48 h treatment
Protocol: The effect of compound treatment on CM beating frequency was determined by video imaging of iPSC-CM monolayers after exposure to SMs. On day 14 of differentiation puromycin-selected miPSC-CMs were plated on a fibronectin-coated multi-well cell culture plate (10^5 cells/cm^2). […] Following SM treatment, cells were washed twice with PBS (with calcium and magnesium) and cultured for 72 h in fresh differentiation medium. […] The number of beats per each video sequence was quantified and the contraction rate was calculated in beats per minute.
Further, the effect of compound treatment on the CM beating frequency was determined by video imaging of iPSC-CM monolayers after exposure to compounds as described above.

[4] = test system: αPIG-AT25 miPSC-derived cardiomyocytes; test: Cell viability (PrestoBlue) of miPSC-derived cardiomyocytes; type: cell-based, murine; settings: 48 h treatment
[5] = read-out: decrease of cardiomyocyte viability, in average over SM1, SM4 and SM8
[6] = read-out: decrease of cardiomyocyte viability

Compound	IC50 [2]	decrease of contraction rate of CMs compared to DMSO-treated control [3]	cytotoxicity at 72 h, 10 μM [1, 5]	cytotoxicity at 72 h, 10 μM [1, 6]	microscopic analysis of CM monolayers [4]	effect on pluripotent stem cells ([2]; 10 μM, two day-treatment)
Oc1c(/C=N/[C@H]2CCCC[C@@H]2NCc2cccc(-c3ccccc3)c2O)cccc1-c1ccccc1 [SM2, (1S,2S)-N-[(2-hydroxy-3-phenyl)-benzyl]-N′-[(2-hydroxy-3-phenyl)-benzylidene]-1,2-diaminocyclohexane]	100 to 5000 nM	61.02±2.67%		18.5 ± 7.06%	intact CM monolayers	
Oc1c(/C=N/[C@@H]2CCCC[C@H]2NCc2cccc(-c3ccccc3)c2O)cccc1-c1ccccc1 [SM5, (1R,2R)-N-[(2-hydroxy-3-phenyl)-benzyl]-N′-[(2-hydroxy-3-phenyl)-benzylidene]-1,2-diaminocyclohexane]	100 to 5000 nM			14.1 ± 13.8%		
Oc1ccccc1CN[C@@H]1CCCC[C@H]1NCc1ccccc1O [SM6, (1R,2R)-N,N′-di(2-hydroxybenzyl)-1,2-diaminocyclohexane]	100 to 5000 nM	24.26±15.71%		11 ± 13.2%	intact CM monolayers	elimination of pluripotent stem cells

Second part, led by results:

IC50 [2]	decrease of contraction rate of CMs compared to DMSO-treated control [3]	Compound	cytotoxicity at 72 h, 10 μM [1, 5]	cytotoxicity at 72 h, 10 μM [1, 6]	microscopic analysis of CM monolayers [4]	effect on pluripotent stem cells ([2]; 10 μM, two day-treatment)
100 to 5000 nM		Oc1c(CNC2CCCC[C@@H]2NCc2cccc(-c3ccccc3)c2O)cccc1-c1ccccc1 (stereo partly drawn) [SM1, (1S,2S)-N,N′-di[(2-hydroxy-3-phenyl)-benzyl]-1,2-diaminocyclo-hexane]	79.8 ± 14.7%			
100 to 5000 nM		Oc1c(CN[C@@H]2CCCC[C@H]2NCc2cccc(-c3ccccc3)c2O)cccc1-c1ccccc1 [SM4, (1R,2R)-N,N′-di[(2-hydroxy-3-phenyl)-benzyl]-1,2-diaminocyclohexane]	79.8 ± 14.7%			
	71.37±26.91%	Oc1c(CNC2CCCC[C@@H]2NCc2cccc(-c3ccccc3)c2O)cccc1-c1ccccc1 (stereo partly drawn) [SM8, (1S,2R)-N,N′-di[(2-hydroxy-3-phenyl)-benzyl]-1,2-diaminocyclohexane]			intact CM monolayers	

From patent US11299453B2 (Universität zu Köln, priority 2017, dated 2022)
